# Reference: US20230416329A1, “A PEPTIDE WITH DISULFIDE BONDS AND INHIBITORY ACTIVITY AGAINST SERINE PROTEASES, DERIVED HYBRID PEPTIDES THEREOF, AND USES THEREOF” (INSTITUTE OF MATERIA MEDICA , CHINESE ACADEMY OF MEDICAL …, priority 2020, published 2023)
# Columns and labels:
# DPP-IV = DPP-IV (Homo sapiens, UniProt P27487); experiment: Tolerance of GLP-1 and its analogues to DPP-IV (RP-HPLC remaining peak area); assay type: in vitro ADME; conditions: peptide 25 μM, DPP-IV 0.5 ng/μL, 37° C.
# Method: (§1) Mix by centrifugation at 8000 rpm for 30 seconds.
# (2) Arrange a certain volume of 0.005 μg/μL DPP-IV solution in another sterile EP.
# NEP24.11 = NEP24.11 (Homo sapiens, UniProt P08473); experiment: Tolerance of GLP-1 and its analogues to NEP24.11 (RP-HPLC remaining peak area); assay type: in vitro ADME; conditions: peptide 30 μM, NEP24.11 1.0 ng/μL, 37° C.
# Chain of NEP24.11 (P08473 whole entry): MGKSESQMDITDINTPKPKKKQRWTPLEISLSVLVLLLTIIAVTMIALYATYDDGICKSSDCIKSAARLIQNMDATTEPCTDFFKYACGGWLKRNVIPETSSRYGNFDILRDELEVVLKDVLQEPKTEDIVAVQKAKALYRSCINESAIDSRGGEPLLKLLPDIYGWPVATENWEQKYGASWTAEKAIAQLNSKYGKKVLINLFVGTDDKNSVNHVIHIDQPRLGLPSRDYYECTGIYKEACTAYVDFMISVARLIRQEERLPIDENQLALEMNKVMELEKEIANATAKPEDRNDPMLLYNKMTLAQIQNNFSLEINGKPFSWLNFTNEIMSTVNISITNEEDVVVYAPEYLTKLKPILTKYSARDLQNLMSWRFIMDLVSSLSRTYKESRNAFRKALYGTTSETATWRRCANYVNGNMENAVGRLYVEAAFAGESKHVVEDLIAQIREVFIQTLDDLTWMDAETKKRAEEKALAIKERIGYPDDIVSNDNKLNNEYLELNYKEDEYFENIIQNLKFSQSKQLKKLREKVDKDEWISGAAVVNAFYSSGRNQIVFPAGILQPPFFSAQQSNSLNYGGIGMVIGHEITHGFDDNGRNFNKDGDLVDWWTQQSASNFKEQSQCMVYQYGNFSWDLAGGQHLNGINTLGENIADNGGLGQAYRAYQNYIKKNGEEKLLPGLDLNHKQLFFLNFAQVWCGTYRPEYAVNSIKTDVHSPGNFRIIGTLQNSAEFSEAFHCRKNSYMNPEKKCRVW
# Method: as §1
# Arrange a certain volume of 0.04 μg/μL NEP24.11 enzyme solution in another sterile EP.
# trypsin = molecular target: T1, trypsin (Bos taurus, UniProt P00760); experiment: in vitro; conditions: isolated enzyme trypsin, pH 7.8
# T1 sequence (P00760 24-246): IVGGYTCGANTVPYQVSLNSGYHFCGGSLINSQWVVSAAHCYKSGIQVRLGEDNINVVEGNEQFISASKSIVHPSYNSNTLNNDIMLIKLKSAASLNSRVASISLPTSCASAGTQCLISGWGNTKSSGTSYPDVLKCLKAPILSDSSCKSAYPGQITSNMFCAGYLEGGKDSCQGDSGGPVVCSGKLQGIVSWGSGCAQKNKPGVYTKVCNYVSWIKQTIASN
# Outline: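 Peptides were preincubated for 5 min at 37 °C and then digested with 0.05 μg/μL trypsin solution (stock). Remaining intact peptide was quantified as RP-HPLC peak area.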
# chymotrypsin = chymotrypsin (Bos taurus, UniProt P00766); experiment: in vitro; conditions: isolated enzyme chymotrypsin, pH 7.8, Remaining peak area (%)/chymotrypsin
# Outline: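 Peptide and 0.05 μg/μL chymotrypsin were preincubated at 37 °C for 5 min, then mixed. Aliquots taken from 1.5 up to 60.0 min were quenched with 10% TFA, and remaining peptide was measured as RP-HPLC peak area.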
# [1] = Stability of GLP-1 and its analogues in human serum; conditions: 25% (v/v) human serum
# Method: The amount of the prototype peptide at 0 h was taken as 100%. At different time point, 100 μL aliquots was taken out, and 300 μL precooled anhydrous methanol was added to terminate the reaction. The remaining percentage (%) of the peptide relative to the prototype peptide at that time point was analyzed by reverse phase high performance liquid chromatography. The experiment was performed with three replicates, and data were expressed as “mean±standard deviation”. The sample was subjected to high-speed centrifugation, supernatant extraction, and freeze drying, followed by dissolution in 50% (v/v) methanol/water solution, and analyzed by reverse phase high performance liquid chromatography. The experiment was performed with three replicates, and data were expressed as “mean±standard deviation”.
# Invert and mix thoroughly, then leave at −20° C. overnight. At the same time, take three sterile EP tubes and add 25 μL of human serum, 75 μL of 50 mM Tris-HCl buffer (pH7.0), and 300 μL of pre-cold absolute methanol. Invert and mix thoroughly, then leave at −20° C. overnight as a negative control, so as to eliminate the interference of proteins or peptides contained in human serum at the peak time of the target peptide after methanol precipitation.
# Arrange a certain volume of human serum in another sterile EP. Incubate the EP tubes containing peptides and serum at 37° C. for 10 min, and add 137.5 μL of human serum to each EP tube containing peptides and mix well. […] Start timing and remove 100 μL of reaction solution at 0.5, 2.0, 4.0, 8.0, and 12.0 h later, respectively. Add 300 μL of pre-cold absolute methanol. Invert and mix thoroughly, then leave at −20° C. overnight. […] There are three replicates at each time point, and the peak area of the peptide at each time point is detected using reverse phase high-performance liquid chromatography (RP-HPLC). The ratio of the remaining peak area of the sample at detection time T (h) to the peak area of the prototype peptide at 0 h is calculated as the remaining percentage (%) of the peptide.
# Chain of DPP-IV (P27487 whole entry, species assumed): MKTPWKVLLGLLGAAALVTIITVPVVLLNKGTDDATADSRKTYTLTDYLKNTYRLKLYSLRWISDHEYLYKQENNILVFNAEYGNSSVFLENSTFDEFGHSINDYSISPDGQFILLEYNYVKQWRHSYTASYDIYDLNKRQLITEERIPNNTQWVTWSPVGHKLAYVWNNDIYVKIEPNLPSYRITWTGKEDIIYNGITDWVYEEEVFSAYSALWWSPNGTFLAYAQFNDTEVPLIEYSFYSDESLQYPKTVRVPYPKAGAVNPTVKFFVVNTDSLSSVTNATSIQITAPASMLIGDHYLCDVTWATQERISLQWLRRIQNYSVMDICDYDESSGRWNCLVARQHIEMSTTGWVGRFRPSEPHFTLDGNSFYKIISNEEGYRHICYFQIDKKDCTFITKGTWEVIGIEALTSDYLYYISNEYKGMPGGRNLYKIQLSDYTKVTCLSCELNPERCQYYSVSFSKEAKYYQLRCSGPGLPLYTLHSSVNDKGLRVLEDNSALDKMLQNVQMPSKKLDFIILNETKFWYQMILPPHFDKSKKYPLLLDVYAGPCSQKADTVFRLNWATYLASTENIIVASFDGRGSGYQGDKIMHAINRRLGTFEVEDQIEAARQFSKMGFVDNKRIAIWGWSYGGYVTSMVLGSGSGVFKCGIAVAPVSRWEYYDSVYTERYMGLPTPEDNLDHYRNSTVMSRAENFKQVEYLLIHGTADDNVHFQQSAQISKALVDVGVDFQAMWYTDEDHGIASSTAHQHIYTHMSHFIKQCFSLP
smiles,measurement,setting,value
CC[C@H](C)[C@H](NC(=O)[C@H](Cc1ccccc1)NC(=O)[C@H](CCC(=O)O)NC(=O)[C@H](CCCCN)NC(=O)[C@H](C)NC(=O)[C@H](C)NC(=O)[C@H](CCC(N)=O)NC(=O)CNC(=O)[C@H](CCC(=O)O)NC(=O)[C@H](CC(C)C)NC(=O)[C@H](Cc1ccc(O)cc1)NC(=O)[C@H](CO)NC(=O)[C@H](CO)NC(=O)[C@@H](NC(=O)[C@H](CC(=O)O)NC(=O)[C@H](CO)NC(=O)[C@@H](NC(=O)[C@H](Cc1ccccc1)NC(=O)[C@@H](NC(=O)CNC(=O)[C@H](CCC(=O)O)NC(=O)[C@H](C)NC(=O)[C@H](Cc1c[nH]cn1)NC(=O)CNC(=O)CNC(=O)[C@@H](NC(=O)[C@@H]1CCCN1C(=O)[C@@H](NC(=O)CNC(=O)CNC(=O)[C@H](Cc1ccccc1)NC(=O)[C@@H]1CSSC[C@H](N)C(=O)NCC(=O)N[C@@H](CCCNC(=N)N)C(=O)N[C@@H](C)C(=O)N[C@@H]([C@@H](C)O)C(=O)N[C@@H](CCCCN)C(=O)N[C@@H](CO)C(=O)N[C@@H]([C@@H](C)CC)C(=O)N2CCC[C@H]2C(=O)N2CCC[C@H]2C(=O)N[C@@H]([C@@H](C)CC)C(=O)N1)[C@@H](C)CC)[C@@H](C)CC)[C@@H](C)O)[C@@H](C)O)C(C)C)C(=O)N[C@@H](C)C(=O)N[C@@H](Cc1c[nH]c2ccccc12)C(=O)N[C@@H](CC(C)C)C(=O)N[C@H](C(=O)N[C@@H](CCCCN)C(=O)NCC(=O)N[C@@H](CCCNC(=N)N)C(=O)NCC(=O)NCC(=O)N[C@@H](CCCCN)C(=O)O)C(C)C [BT9-D-GLP-1],Remaining peak area (%)/DPP-IV,DPP-IV; 0.0 h,100.0 ± 0.0%
same,"remaining at 0.5 h, 25 μM","DPP-IV; isolated DPP-IV enzyme in buffer, pH 8, 0.5 h",81.1 ± 1%
same,"remaining at 2 h, 25 μM","DPP-IV; isolated DPP-IV enzyme in buffer, pH 8, 2.0 h",77.9 ± 2.9%
same,"remaining at 4 h, 25 μM","DPP-IV; isolated DPP-IV enzyme in buffer, pH 8, 4.0 h",79.1 ± 1.3%
same,"remaining at 8 h, 25 μM","DPP-IV; isolated DPP-IV enzyme in buffer, pH 8, 8.0 h",78.8 ± 0.6%
same,"remaining at 12 h, 25 μM","DPP-IV; isolated DPP-IV enzyme in buffer, pH 8, 12.0 h",72.4 ± 1.9%
same,Remaining peak area (%)/NEP24.11,NEP24.11; 0.0 h,100.0 ± 0.0%
same,"remaining at 0.5 h, 30 μM","NEP24.11; isolated NEP24.11 enzyme in buffer, pH 7.4, 0.5 h",79.8 ± 3.5%
same,"remaining at 2 h, 30 μM","NEP24.11; isolated NEP24.11 enzyme in buffer, pH 7.4, 2.0 h",60.2 ± 1.8%
same,"remaining at 4 h, 30 μM","NEP24.11; isolated NEP24.11 enzyme in buffer, pH 7.4, 4.0 h",56.1 ± 3.4%
same,"remaining at 8 h, 30 μM","NEP24.11; isolated NEP24.11 enzyme in buffer, pH 7.4, 8.0 h, read-out: Remaining peak area (%)/NEP24.11",48.4 ± 1.4%
same,"remaining at 0.025 h, 60 μM",trypsin,76.6 ± 3%
same,"remaining at 0.05 h, 60 μM",trypsin,76.7 ± 9.1%
same,"remaining at 0.075 h, 60 μM",trypsin,77 ± 2.4%
same,"remaining at 0.1 h, 60 μM",trypsin,79.2 ± 3.1%
same,"remaining at 0.15 h, 60 μM",trypsin,80.2 ± 1%
same,"remaining at 0.25 h, 60 μM",trypsin,79.1 ± 2.2%
same,"remaining at 0.5 h, 60 μM",trypsin,75.8 ± 3.8%
same,"remaining at 1 h, 60 μM",trypsin,77.7 ± 0.5%
same,"remaining at 0.025 h, 60 μM",chymotrypsin,54.9 ± 6.6%
same,"remaining at 0.075 h, 60 μM",chymotrypsin,28.7 ± 2.4%
same,"remaining at 0.1 h, 60 μM",chymotrypsin,19.2 ± 1.3%
same,"remaining at 0.15 h, 60 μM",chymotrypsin,9 ± 0.9%
same,Remaining peak area (%)/human serum,"[1]; 0.0 h, peptide 0.03 mM, 37° C.",100.0 ± 0.0%
same,serum stability (in words),[1],good serum stability
same,"remaining at 0.5 h, 0.03 mM","[1]; human, pH 7",65.6 ± 14.7%
same,"remaining at 2 h, 0.03 mM","[1]; human, pH 7",38.5 ± 13.3%
same,"remaining at 4 h, 0.03 mM","[1]; human, pH 7",28%
same,"remaining at 8 h, 0.03 mM","[1]; human, pH 7",13.7%
same,"remaining at 12 h, 0.03 mM","[1]; human, pH 7",19.6 ± 1.2%
